Patent US20170296457A1, “PRODUCTS AND METHODS FOR TREATING PERIORBITAL DYSCHROMIA” (The Procter & Gamble Company, priority 2016, published 2017)

Tested on: B16-F1 mouse melanoma cell line
Test: B16 melanin synthesis inhibition assay
Assay type: cell-based
Conditions: B16-F1 cells, OD at 410 nm
Protocol: In this example, a commercially available B16-F1 mouse melanoma cell line from American Tissue Culture Collection, Virginia, USA was employed in a conventional melanin synthesis inhibition assay. The cell culture medium used in the assay is 500 mL of Dulbecco's Modified Eagle's Medium (DMEM), 50 mL Fetal Bovine Serum (FBS), and 5 mL of penicillin-streptomycin liquid. B16-F1 cells that are cultured in this medium and grown to greater than 90% confluency will synthesize melanin. While not intending to be bound by any theory, it is hypothesized that the melanin synthesis is stimulated by the culture medium and/or stress induced by growth to a high confluency. […] Equipment used in the assay include a CO2 incubator, such as a Forma Series Model 3110 by Therma Scientific, Massachusetts, USA; a hemocytometer, such as a Bright Line model by Hauser Scientific, Pennsylvania, USA; and a UV-Visible Spectrum Plate Reader, such as a SpectraMax250 from Molecular Devices, California, USA. […] Day 3: The cells from the T-150 flask are trypsinized, and the concentration of cells is determined using the hemacytometer. […] Read the 96 well plate using the UV-Vis Plate Reader at 410 nm to optically measure the amount of melanin produced between wells that are treated with the pumpkin seed extract and control wells that are not. […] The concentration of test agent needed to provide the IC 50 is recorded.

Concentration Needed for IC 50 (v/v): 0.008 v/v
SMILES: Oc1ccc(OC2CCCCO2)cc1 (stereo not shown) [Deoxyarbutin]
